For orientation: IC50 means the concentration needed to halve the response being measured.

This passage reports IC50 results from publication PMC3870039 (ACS chemical biology, 2013).

The target of the assay is human topoisomerase IIα (Homo sapiens, UniProt P11388). Kind of assay: competition against DNA cleavage induced by […] 8-methyl-3′-. In kind it is biochemical.
Chain of human topoisomerase IIα (P11388 whole entry): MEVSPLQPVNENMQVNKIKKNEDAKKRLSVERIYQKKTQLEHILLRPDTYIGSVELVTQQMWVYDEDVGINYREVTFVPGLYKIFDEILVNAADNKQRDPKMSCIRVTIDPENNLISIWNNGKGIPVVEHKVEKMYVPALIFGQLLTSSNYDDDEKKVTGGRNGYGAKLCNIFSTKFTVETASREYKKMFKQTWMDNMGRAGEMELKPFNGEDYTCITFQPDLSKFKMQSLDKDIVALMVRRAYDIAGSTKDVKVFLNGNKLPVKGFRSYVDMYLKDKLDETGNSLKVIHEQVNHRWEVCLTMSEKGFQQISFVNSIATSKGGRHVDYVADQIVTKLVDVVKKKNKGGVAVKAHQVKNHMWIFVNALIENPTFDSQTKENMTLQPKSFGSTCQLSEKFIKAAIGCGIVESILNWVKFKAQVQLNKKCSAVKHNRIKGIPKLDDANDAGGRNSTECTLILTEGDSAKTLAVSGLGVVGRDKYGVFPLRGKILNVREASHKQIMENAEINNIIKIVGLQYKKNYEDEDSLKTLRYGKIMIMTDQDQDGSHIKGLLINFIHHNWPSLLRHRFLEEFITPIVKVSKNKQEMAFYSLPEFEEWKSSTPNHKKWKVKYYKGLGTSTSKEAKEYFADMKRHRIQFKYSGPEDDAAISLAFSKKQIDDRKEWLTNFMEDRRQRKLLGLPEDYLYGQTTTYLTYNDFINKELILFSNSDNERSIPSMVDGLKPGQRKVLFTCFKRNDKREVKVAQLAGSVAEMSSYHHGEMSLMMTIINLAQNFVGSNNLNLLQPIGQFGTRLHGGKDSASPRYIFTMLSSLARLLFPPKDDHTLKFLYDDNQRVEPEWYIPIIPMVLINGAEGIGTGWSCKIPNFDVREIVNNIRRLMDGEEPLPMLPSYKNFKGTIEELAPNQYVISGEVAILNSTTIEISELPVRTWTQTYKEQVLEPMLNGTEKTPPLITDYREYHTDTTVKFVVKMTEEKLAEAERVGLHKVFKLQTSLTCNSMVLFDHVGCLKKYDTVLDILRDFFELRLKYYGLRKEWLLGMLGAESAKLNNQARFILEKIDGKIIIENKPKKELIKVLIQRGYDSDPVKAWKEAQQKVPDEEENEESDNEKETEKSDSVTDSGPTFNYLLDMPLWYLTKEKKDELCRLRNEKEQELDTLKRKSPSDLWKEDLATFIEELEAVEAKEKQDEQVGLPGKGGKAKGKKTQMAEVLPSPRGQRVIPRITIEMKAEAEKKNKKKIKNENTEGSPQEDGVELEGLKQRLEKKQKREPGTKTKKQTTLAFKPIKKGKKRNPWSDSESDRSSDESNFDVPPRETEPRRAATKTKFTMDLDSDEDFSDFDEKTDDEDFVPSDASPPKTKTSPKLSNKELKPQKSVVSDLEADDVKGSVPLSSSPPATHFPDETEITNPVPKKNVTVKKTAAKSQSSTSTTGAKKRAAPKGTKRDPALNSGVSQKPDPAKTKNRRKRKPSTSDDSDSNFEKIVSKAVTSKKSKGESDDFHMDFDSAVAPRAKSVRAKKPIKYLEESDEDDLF

Compound `NCC1CCN(c2cc3c(cc2F)c(=O)c(C(=O)O)cn3C2CC2)C1` (stereo not shown) [8-H-3′-(AM)P-FQ] came in with a half-inhibitory concentration (IC50) of approximately 50 µM.
